Results taken from patent publication US20050154033A1, “Methods of using zonisamide as an adjunctive therapy for partial seizures” (Eisai Co., Ltd, priority 2004, published 2005).

Columns and labels:
[1] = parameters: species or system patients (human); details: human, in vivo
Source text: The pharmacovigilance data that were collected, reviewed and analyzed provided the following information in respect of the incidence of NMS. To date, a total of 3 cases (two adult and one pediatric) fulfill the criteria of potential neuroleptic malignant syndrome. These cases were reviewed in detail for evaluation of possible safety signals. They were all deemed serious, and in all cases, the patients recovered with appropriate treatment.
Cases ZONI000813 and ZONI000929 are adult cases from Japan. In both cases the patients carried a diagnosis of Parkinson's disease (PD) and were enrolled in a double blind, placebo controlled […] study of zonisamide as a potential treatment for PD (Protocol AD810N-202-1). […]
Estimates of exposure, based upon retail and mail order prescriptions, indicate that the number of unique patients taking zonisamide capsules in the U.S. is about 37,276 (total prescriptions per year/average number of prescriptions per patient per year less a calculated percentage decrease based on estimated annual dropouts) in the time between approval in 2000 and December 2002 . […] Similarly, the incidences of NMS estimated herein are unlikely to be higher than calculated. Based on the exposure data and number of NMS cases, the incidence of NMS in the U.S. and Japan is calculated to be about 1:37,276 unique patients and 1:592,588 unique patients, respectively.

sodium channels = details: in vitro; cited from earlier work
T-type Ca^2+ currents = details: in vitro; cited from earlier work
[2] = test system: GABA/benzodiazepine receptor ionophore complex; details: in vitro; does not produce changes in chloride flux; cited from earlier work
[3] = test system: cultured mouse spinal cord neurons; details: 10-30 μg/mL, cited from earlier work
rat hippocampal slices = details: 10-30 μg/mL; cited from earlier work
[4] = test system: dopaminergic and serotonergic neurotransmission; details: in vivo microdialysis; cited from earlier work
[5] = upon reaching a stable dose or following dosage adjustment; cited from earlier work
carbonic anhydrase = details: relative to acetazolamide; cited from earlier work

NS(=O)(=O)Cc1noc2ccccc12 [zonisamide, 1,2-benzisoxazole-3-methanesulfonamide]
cases fulfilling the criteria of potential neuroleptic malignant syndrome [1]: 3 cases | incidence of NMS [1]: about 1:37,276 unique patients | effect on sodium channels (sodium channels): blocks sodium channels | effect on T-type Ca2+ currents (T-type Ca^2+ currents): reduces voltage-dependent, transient inward currents | binding to GABA/benzodiazepine receptor ionophore complex [2]: binds to the GABA/benzodiazepine receptor ionophore complex in an allosteric fashion | postsynaptic GABA or glutamate responses ([3]; cultured mouse spinal cord neurons): without affecting | synaptically-driven electrical activity [3]: suppresses synaptically-driven electrical activity | neuronal or glial uptake of [3H]-GABA (rat hippocampal slices): without affecting | effect on neurotransmission [4]: facilitates both dopaminergic and serotonergic neurotransmission | time required to achieve steady-state levels [5]: up to two weeks | carbonic anhydrase inhibition compared to acetazolamide (carbonic anhydrase): 1/50
